Measurements as given in patent publication EP4707280A1, “1,4-CINEOLE DERIVATIVE AND INTERMEDIATE THEREOF, HERBICIDE CONTAINING SAID DERIVATIVE AS ACTIVE INGREDIENT, METHOD FOR USING HERBICIDE, AND METHOD FOR PREPARING AGROCHEMICAL COMPOSITION” (HOKKO CHEMICAL INDUSTRY CO., LTD., priority 2023, dated 2024).

Tests used:
Assay type in all cases: in vivo
[1] = system: Echinochloa crus-galli var. formosensis; experiment: Test Example 1: herbicidal effect test by soil application in paddy rice; details: Echinochloa crus-galli, soil, 336 h; 120 g active ingredient per 10 ares; applied immediately after sowing, flooded pots; 14 days after application; read-out: weed inhibition rate
Summary of the method: (§1)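 Pre-emergence paddy soil application, 120 g a.i./10 a, emulsifiable concentrate diluted in water, applied by dropper right after sowing. Seeds (30/species) sown 0–1 cm in puddled, fertilized soil; flooded ~3 cm; glass greenhouse.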

[2] = system: Scirpus juncoides; experiment: as above; details: Schoenoplectiella juncoides, soil, 336 h; 120 g active ingredient per 10 ares; applied immediately after sowing, flooded pots; 14 days after application; read-out: weed inhibition rate
Summary of the method: as §1

[3] = system: Lindernia pyxidaria; experiment: as above; details: 336 h, 120 g active ingredient per 10 ares, applied immediately after sowing, flooded pots, 14 days after application, read-out: weed inhibition rate
Method: (§2) Wagner pots with an area of […] were filled with paddy soil, followed by addition of water and incorporation of chemical fertilizer (N:P:K = 16:16:16), after which puddling was performed. After that, seeds of Echinochloa crus-galli var. formosensis, broad-leaved weeds (Lindernia pyxidaria and Monochoria vaginalis), and Scirpus juncoides were sown at a depth of 0 cm to 1 cm, 30 seeds each. Immediately after sowing, the pots were flooded and a water depth of approximately 3 cm was maintained. Subsequent management was conducted in a glass greenhouse. Immediately thereafter, an emulsifiable concentrate prepared according to Formulation Example 5 using the compound shown below was diluted with water, and a specified amount of the diluted solution was applied by dropper. The amount of the active ingredient to be applied was equivalent to 120 g per 10 ares.
(§3) The present test was conducted in duplicate for each chemical concentration group, and the weed inhibition rate (%) was determined 14 days after chemical application using the following formula (Math. 1). [formula]

[4] = system: Monochoria vaginalis; experiment: as above; details: Pontederia vaginalis, soil, 336 h; 120 g active ingredient per 10 ares; applied immediately after sowing, flooded pots; 14 days after application; read-out: weed inhibition rate
Method: as §2, §3

[5] = system: Echinochloa crus-galli var. formosensis; experiment: Test Example 2: herbicidal effect test by application during growth period of paddy rice; details: Echinochloa crus-galli; 120 g per 10 ares; applied seven days after sowing, flooded pots; 14 days after application; read-out: weed inhibition rate
Summary of the method: (§4)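 Paddy soil in flooded pots (water depth about 3 cm) was sown with weed seeds and kept in a glass greenhouse. Seven days after sowing, a diluted emulsifiable concentrate was applied by dropper at 120 g active ingredient per 10 ares. Weed inhibition was evaluated 14 days after application, in duplicate.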

[6] = system: Monochoria vaginalis; experiment: as above; details: Pontederia vaginalis; 120 g per 10 ares; applied seven days after sowing, flooded pots; 14 days after application; read-out: weed inhibition rate
Summary of the method: as §4

[7] = system: Echinochloa crus-galli; experiment: Test Example 3: herbicidal effect test by soil application in upland field; details: Echinochloa crus-galli, 120 g per 10 ares, sprayed one day after sowing, 14 days after application, read-out: weed inhibition rate
Summary of the method: (§5)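 Weed inhibition (%) was assessed 14 days after treatment, in duplicate per concentration group. Seeds had been mixed into the upper 1 cm of upland alluvial loam, and the soil surface was sprayed one day later with the diluted emulsifiable concentrate at 120 g active ingredient per 10 ares.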

[8] = system: Digitaria ciliaris; experiment: Test Example 4: herbicidal effect test by stem and leaf treatment in upland field; details: Digitaria ciliaris; 120 g per 10 ares; sprayed seven days after sowing, upland soil; 14 days after application; read-out: weed inhibition rate
[9] = system: Echinochloa crus-galli; experiment: as above; details: Echinochloa crus-galli; 120 g per 10 ares; sprayed seven days after sowing, upland soil; 14 days after application; read-out: weed inhibition rate
[10] = system: Echinochloa crus-galli var. formosensis; experiment: Test Example 5: herbicidal effect test by soil application in paddy rice (low dose); details: Echinochloa crus-galli, soil, 336 h; 7.5 g per 10 ares; applied immediately after sowing, flooded pots; 14 days after application; read-out: weed inhibition rate
Summary of the method: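 Paddy-soil pots, weeds sown 0–1 cm deep and flooded to about 3 cm in a greenhouse. Emulsifiable concentrate diluted in water and dropped in right after sowing at 7.5 g active ingredient per 10 ares. Duplicates; effect scored 14 days after application.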

[11] = system: Echinochloa crus-galli var. formosensis at the three-leaf stage; experiment: Comparative Example: herbicidal effect test by application during growth period of paddy rice (three-leaf stage, Table 7); details: active ingredient 7.5 g per 10 ares, emulsifiable concentrate applied by dropper to flooded pots, 21 days after chemical application, triplicate; for inhibition at 75 g/ha: 504 h, read-out: Weed inhibition rate (%)
Method: As an example, the herbicidal effect on Echinochloa crus-galli var. formosensis at the three-leaf stage was confirmed by the following method, and the results are specifically shown in Table 7 as a comparative example.
as §2, with “that, 30” for “that,”, “formosensis” for “formosensis, broad-leaved weeds (Lindernia pyxidaria and Monochoria vaginalis), and Scirpus juncoides”, “cm.” for “cm, 30 seeds each.”, “When Echinochloa crus-galli var. formosensis reached the three-leaf stage,” for “Immediately thereafter,”, “7.5” for “120”, “ares. The test was conducted in triplicate for each chemical concentration group, and the weed inhibition rate (%) was determined 21 days after chemical application using the following formula (Math. 1).” for “ares.”

[12] = system: Lindernia pyxidaria; experiment: Test Example 2: herbicidal effect test by application during growth period of paddy rice; details: 120 g per 10 ares, applied seven days after sowing, flooded pots, 14 days after application, read-out: weed inhibition rate
Summary of the method: as §4

[13] = system: Scirpus juncoides; experiment: as above; details: Schoenoplectiella juncoides; 120 g per 10 ares; applied seven days after sowing, flooded pots; 14 days after application; read-out: weed inhibition rate
Summary of the method: as §4

[14] = system: Digitaria ciliaris; experiment: Test Example 3: herbicidal effect test by soil application in upland field; details: Digitaria ciliaris, 120 g per 10 ares, sprayed one day after sowing, 14 days after application, read-out: weed inhibition rate
Summary of the method: as §5

[15] = system: Echinochloa crus-galli var. formosensis; experiment: Test Example 6: herbicidal effect test by application during growth period of paddy rice (low dose); details: Echinochloa crus-galli; 7.5 g per 10 ares; applied seven days after sowing, flooded pots; 14 days after application; read-out: weed inhibition rate
Summary of the method: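 Puddled, fertilised paddy soil was sown with 30 seeds per species and flooded to about 3 cm. After 7 days in a glass greenhouse, the diluted emulsifiable concentrate went into the water by dropper at 7.5 g/10 a. Effect scored at 14 days.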

[16] = system: Chenopodium album; experiment: Test Example 4: herbicidal effect test by stem and leaf treatment in upland field; details: 120 g per 10 ares, sprayed seven days after sowing, upland soil, 14 days after application, read-out: weed inhibition rate
[17] = system: Amaranthus viridis; experiment: Test Example 3: herbicidal effect test by soil application in upland field; details: Amaranthus viridis, 120 g per 10 ares, sprayed one day after sowing, 14 days after application, read-out: weed inhibition rate
Summary of the method: as §5

[18] = system: Digitaria ciliaris; experiment: Test Example 7: herbicidal effect test by soil application in upland field (low dose); details: Digitaria ciliaris, 7.5 g per 10 ares, sprayed one day after sowing, 14 days after application, read-out: weed inhibition rate
Summary of the method: (§6)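 Upland alluvial loam pots, seeds mixed into top 1 cm of soil; one day after sowing, diluted emulsifiable concentrate sprayed on soil at 100 L/10 a, giving 7.5 g active ingredient/10 a. Duplicate pots; weed inhibition rate (%) scored 14 days after application.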

[19] = system: Echinochloa crus-galli; experiment: as above; details: Echinochloa crus-galli, 7.5 g per 10 ares, sprayed one day after sowing, 14 days after application, read-out: weed inhibition rate
Summary of the method: as §6

[20] = system: Amaranthus viridis; experiment: as above; details: 7.5 g per 10 ares, sprayed one day after sowing, upland soil, 14 days after application, read-out: weed inhibition rate
[21] = system: Echinochloa crus-galli; experiment: Test Example 8: herbicidal effect test by stem and leaf treatment in upland field (low dose); details: Echinochloa crus-galli; 7.5 g per 10 ares; sprayed seven days after sowing, upland soil; 14 days after application; read-out: weed inhibition rate
[22] = system: Chenopodium album; experiment: Test Example 3: herbicidal effect test by soil application in upland field; details: 120 g per 10 ares, sprayed one day after sowing, 14 days after application, read-out: weed inhibition rate
Summary of the method: as §5

Structure (SMILES) | pest or weed control at 1200 g/ha [1] | pest or weed control at 1200 g/ha [2] | inhibition at 1200 g/ha [5] | inhibition at 1200 g/ha [7] | inhibition at 1200 g/ha [8] | inhibition at 1200 g/ha [9] | inhibition at 75 g/ha [10] | inhibition at 1200 g/ha [14] | other results
CC(C)[C@]12C[C@@H](OCc3ccccc3F)[C@](C)(CC1c1ccccc1F)O2 (stereo partly drawn) [1-922, (1S,2R,4R)-2-((2-fluorobenzyl)oxy)-5-(2-fluorophenyl)-4-isopropyl-1-methyl-7-oxabicyclo[2.2.1]heptane] | ≥ 80% | ≥ 80% | ≥ 80% | ≥ 80% | ≥ 80% | ≥ 80% | ≥ 80% | – | pest or weed control at 1200 g/ha [3]: ≥ 80%; pest or weed control at 1200 g/ha [4]: ≥ 80%; inhibition at 1200 g/ha [6]: ≥ 80%
C=C1C(OCc2ccccc2C)C2(C)CCC1(C(C)C)O2 (stereo not drawn) | – | – | – | – | – | – | – | – | Weed inhibition rate (%) [11]: 20%
Cc1ccccc1COC1CC2(C(C)C)CCC1(C)O2 (stereo not drawn) | – | – | – | – | – | – | – | – | inhibition at 75 g/ha [11]: 73%
Cc1cccc(CO[C@@H]2C[C@]3(C(C)C)O[C@@]2(C)CC3=O)c1 [2-352, (1R,4S,5R)-1-isopropyl-4-methyl-5-((3-methylbenzyl)oxy)-7-oxabicyclo[2.2.1]heptan-2-one] | ≥ 80% | ≥ 80% | ≥ 80% | ≥ 80% | ≥ 80% | ≥ 80% | ≥ 80% | ≥ 80% | inhibition at 1200 g/ha [12]: ≥ 80%; inhibition at 1200 g/ha [13]: ≥ 80%; inhibition at 75 g/ha [15]: ≥ 80%
CC(C)[C@]12C[C@@H](OCc3ccccc3F)[C@](C)(C[C@@H]1C)O2 [1-93, (1S,2R,4R,5S)-2-[(2-fluorophenyl)methoxy]-1,5-dimethyl-4-isopropyl-7-oxabicyclo[2.2.1]heptane] | ≥ 80% | – | ≥ 80% | ≥ 80% | ≥ 80% | ≥ 80% | – | ≥ 80% | inhibition at 75 g/ha [11]: 100%
CC(C)[C@]12C[C@@H](OCc3ccccc3F)[C@](C)(CC1c1ccc(F)cc1)O2 (stereo partly drawn) [1-924, (1S,2R,4R)-2-((2-fluorobenzyl)oxy)-5-(4-fluorophenyl)-4-isopropyl-1-methyl-7-oxabicyclo[2.2.1]heptane] | ≥ 80% | ≥ 80% | ≥ 80% | ≥ 80% | ≥ 80% | ≥ 80% | – | – | pest or weed control at 1200 g/ha [3]: ≥ 80%; pest or weed control at 1200 g/ha [4]: ≥ 80%; inhibition at 1200 g/ha [16]: ≥ 80%
CC(C)[C@]12C[C@@H](OCc3ccccc3F)[C@](C)(C[C@H]1O)O2 [1-68, (1R,2R,4S,5R)-5-[(2-fluorophenyl)methoxy]-4-methyl-1-isopropyl-7-oxabicyclo[2.2.1]heptan-2-ol] | ≥ 80% | – | ≥ 80% | ≥ 80% | – | ≥ 80% | ≥ 80% | ≥ 80% | inhibition at 1200 g/ha [17]: ≥ 80%; inhibition at 75 g/ha [15]: ≥ 80%; inhibition at 75 g/ha [18]: ≥ 80%; inhibition at 75 g/ha [19]: ≥ 80%; inhibition at 75 g/ha [20]: ≥ 80%; inhibition at 75 g/ha [21]: ≥ 80%
Cc1cccc(C2C[C@]3(C)O[C@@]2(C(C)C)C[C@H]3OCc2ccccc2F)c1 (stereo partly drawn) [1-926, (1S,2R,4R)-2-((2-fluorobenzyl)oxy)-4-isopropyl-1-methyl-5-(m-tolyl)-7-oxabicyclo[2.2.1]heptane] | ≥ 80% | ≥ 80% | ≥ 80% | ≥ 80% | – | – | – | – | inhibition at 1200 g/ha [17]: ≥ 80%; inhibition at 1200 g/ha [22]: ≥ 80%
